Experimental data from ChEMBL document CHEMBL1201862, “PubChem BioAssay data set” (2004).
Active and inactive are the calls of the source.

Tests used:
[1] = test system: HEK293; experiment: inhibition of NOD1-driven NF-kB reporter – cell-based, luminescence, uHTS, primary screen (AID 1578); type: functional; conditions: Homo sapiens
[2] = test system: HEK293; experiment: cells; type: functional, cell-based; conditions: Homo sapiens
[3] = test system: HEK293; experiment: cells; type: functional, cell-based; conditions: Homo sapiens; remark: listed apart in the source
[4] = biological target: Nucleotide-binding oligomerization domain-containing protein 2 (Homo sapiens, UniProt Q9HC29); experiment: inhibition of NOD2-driven NF-kB reporter – cell-based, luminescence, uHTS, HEK293 (AID 1566); type: functional
[5] = test system: HEK293; experiment: NOD2 signaling inhibitors in MDP-stimulated cells, cell-based, uHTS, luminescence (AID 2001); type: functional; conditions: Homo sapiens
[6] = test system: HEK293; experiment: cells; type: functional, cell-based; conditions: Homo sapiens; remark: listed apart in the source
[7] = biological target: Troponin, cardiac muscle (Homo sapiens, UniProt P19429+P45379+P63316); experiment: Fluorescence-based biochemical high throughput dose response assay for activators of the calcium sensitivity of cardiac Regulated Thin Filaments (RTF). [Related pubchem assays (depositor defined):AID493008, AID493018, AID504382, AID504383]; type: protein-complex assay
[8] = biological target: T1, Replicative DNA helicase DnaB (Mycobacterium tuberculosis, UniProt P9WMR3); experiment: DnaB intein splicing inhibitors, dose response, biochemical, cell-free fluorescence (AID 449749); type: functional
T1 sequence (P9WMR3 whole entry): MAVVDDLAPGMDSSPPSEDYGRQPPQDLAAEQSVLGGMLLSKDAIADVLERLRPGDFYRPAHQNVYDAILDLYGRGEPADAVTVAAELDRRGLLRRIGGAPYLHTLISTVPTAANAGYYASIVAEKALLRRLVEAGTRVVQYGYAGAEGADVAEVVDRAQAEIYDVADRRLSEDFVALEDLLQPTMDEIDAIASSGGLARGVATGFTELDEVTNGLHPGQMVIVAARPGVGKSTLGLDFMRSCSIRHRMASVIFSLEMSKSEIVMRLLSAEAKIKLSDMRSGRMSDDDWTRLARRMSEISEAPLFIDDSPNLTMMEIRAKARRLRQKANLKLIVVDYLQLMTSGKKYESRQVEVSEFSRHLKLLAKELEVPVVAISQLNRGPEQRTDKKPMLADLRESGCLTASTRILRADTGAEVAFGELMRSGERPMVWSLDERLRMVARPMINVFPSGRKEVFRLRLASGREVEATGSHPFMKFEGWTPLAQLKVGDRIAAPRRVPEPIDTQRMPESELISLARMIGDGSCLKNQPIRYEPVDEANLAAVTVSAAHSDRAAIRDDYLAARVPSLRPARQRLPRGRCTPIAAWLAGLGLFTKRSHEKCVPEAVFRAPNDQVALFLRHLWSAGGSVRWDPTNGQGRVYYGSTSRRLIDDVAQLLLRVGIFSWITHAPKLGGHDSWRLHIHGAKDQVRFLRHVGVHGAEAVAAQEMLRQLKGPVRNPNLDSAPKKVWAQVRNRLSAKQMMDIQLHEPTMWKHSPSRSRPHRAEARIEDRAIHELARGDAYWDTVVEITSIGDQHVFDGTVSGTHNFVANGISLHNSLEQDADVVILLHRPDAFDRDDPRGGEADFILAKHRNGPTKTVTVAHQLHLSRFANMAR

[9] = biological target: T2, Protein RecA (Mycobacterium tuberculosis, UniProt P9WHJ3); experiment: Fluorescence Cell-Free Homogeneous Dose Retest to Identify Inhibitors of RecA-Intein Splicing Activity. [Related pubchem assays (depositor defined):AID2097, AID2223, AID489010, AID492950]; type: functional
T2 sequence (P9WHJ3 whole entry): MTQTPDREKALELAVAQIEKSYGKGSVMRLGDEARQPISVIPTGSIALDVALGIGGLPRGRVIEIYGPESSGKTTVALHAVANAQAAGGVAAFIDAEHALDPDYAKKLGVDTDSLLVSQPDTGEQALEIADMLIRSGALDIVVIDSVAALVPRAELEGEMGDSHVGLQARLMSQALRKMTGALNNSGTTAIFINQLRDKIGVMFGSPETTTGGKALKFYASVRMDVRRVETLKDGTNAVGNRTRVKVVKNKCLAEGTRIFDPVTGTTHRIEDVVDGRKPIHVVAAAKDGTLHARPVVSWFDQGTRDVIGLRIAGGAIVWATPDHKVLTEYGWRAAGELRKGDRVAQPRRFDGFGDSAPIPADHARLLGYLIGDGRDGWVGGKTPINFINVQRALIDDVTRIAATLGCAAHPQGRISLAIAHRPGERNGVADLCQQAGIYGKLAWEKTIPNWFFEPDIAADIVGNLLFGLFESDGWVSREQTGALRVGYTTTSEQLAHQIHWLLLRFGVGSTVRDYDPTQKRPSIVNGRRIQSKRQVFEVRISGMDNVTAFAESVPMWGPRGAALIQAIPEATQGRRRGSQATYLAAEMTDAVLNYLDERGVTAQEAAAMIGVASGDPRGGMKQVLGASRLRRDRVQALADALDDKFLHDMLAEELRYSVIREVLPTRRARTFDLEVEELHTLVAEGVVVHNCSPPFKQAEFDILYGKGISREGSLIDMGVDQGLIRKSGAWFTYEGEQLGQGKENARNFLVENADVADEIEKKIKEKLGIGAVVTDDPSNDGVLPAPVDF

[10] = biological target: T3, Bcl-2-related protein A1 (Mus musculus, UniProt Q07440); type: functional;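 note: confirmatory dose–response counterscreen on Bfl-1, used to check hits from a UBC13 polyubiquitin inhibitor campaign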
T3 sequence (Q07440 whole entry): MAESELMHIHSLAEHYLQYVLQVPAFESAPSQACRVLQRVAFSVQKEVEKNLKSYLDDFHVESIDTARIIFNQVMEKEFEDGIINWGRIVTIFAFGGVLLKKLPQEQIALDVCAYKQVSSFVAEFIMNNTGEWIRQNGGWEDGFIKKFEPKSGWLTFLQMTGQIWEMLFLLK

[11] = biological target: T4, Ubiquitin-conjugating enzyme E2 N (Homo sapiens, UniProt P61088); type: functional
T4 sequence (P61088 whole entry): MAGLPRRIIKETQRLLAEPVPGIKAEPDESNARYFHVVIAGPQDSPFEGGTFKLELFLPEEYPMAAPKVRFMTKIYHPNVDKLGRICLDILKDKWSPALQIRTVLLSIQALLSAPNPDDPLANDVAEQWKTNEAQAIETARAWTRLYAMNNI

[12] = biological target: T4, Ubiquitin-conjugating enzyme E2 N; type: functional; remark: listed apart in the source
[13] = biological target: T5, Coagulation factor XII (Homo sapiens, UniProt P00748); type: functional;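 note: activated factor XIIa alpha cleaving a fluorogenic AMC peptide substrate; inhibitor potency from loss of enzyme activity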
T5 sequence (P00748 whole entry): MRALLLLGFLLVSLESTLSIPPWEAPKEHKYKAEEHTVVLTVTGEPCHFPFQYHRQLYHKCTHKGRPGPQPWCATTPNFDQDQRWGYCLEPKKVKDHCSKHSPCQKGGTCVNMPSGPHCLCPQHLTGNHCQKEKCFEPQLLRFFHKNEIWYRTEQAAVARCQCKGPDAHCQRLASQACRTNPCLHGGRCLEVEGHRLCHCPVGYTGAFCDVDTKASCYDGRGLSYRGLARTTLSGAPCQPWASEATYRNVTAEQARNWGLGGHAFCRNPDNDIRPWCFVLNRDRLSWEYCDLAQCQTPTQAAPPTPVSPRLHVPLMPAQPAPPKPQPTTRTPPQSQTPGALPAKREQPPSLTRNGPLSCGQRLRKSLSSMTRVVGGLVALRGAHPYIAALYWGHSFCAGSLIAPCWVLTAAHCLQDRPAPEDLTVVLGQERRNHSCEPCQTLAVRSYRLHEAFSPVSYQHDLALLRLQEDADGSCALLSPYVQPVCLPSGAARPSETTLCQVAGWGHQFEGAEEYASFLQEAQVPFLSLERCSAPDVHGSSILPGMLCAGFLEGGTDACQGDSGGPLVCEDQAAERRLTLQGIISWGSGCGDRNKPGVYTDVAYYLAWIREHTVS

[14] = biological target: T6, Heat shock factor protein 1 (Mus musculus, UniProt P38532); experiment: decrease of HSF1-responsive luciferase luminescence – cell-based, NIH3T3, dose retest, confirmation (AID 2382); type: functional;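 note: NIH3T3 fibroblasts with HSF1-driven luciferase reporter stressed by proteasome inhibitor MG132; luminescence from HSF1-driven luciferase expression after 8 hours of MG132 stress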
T6 sequence (P38532 whole entry): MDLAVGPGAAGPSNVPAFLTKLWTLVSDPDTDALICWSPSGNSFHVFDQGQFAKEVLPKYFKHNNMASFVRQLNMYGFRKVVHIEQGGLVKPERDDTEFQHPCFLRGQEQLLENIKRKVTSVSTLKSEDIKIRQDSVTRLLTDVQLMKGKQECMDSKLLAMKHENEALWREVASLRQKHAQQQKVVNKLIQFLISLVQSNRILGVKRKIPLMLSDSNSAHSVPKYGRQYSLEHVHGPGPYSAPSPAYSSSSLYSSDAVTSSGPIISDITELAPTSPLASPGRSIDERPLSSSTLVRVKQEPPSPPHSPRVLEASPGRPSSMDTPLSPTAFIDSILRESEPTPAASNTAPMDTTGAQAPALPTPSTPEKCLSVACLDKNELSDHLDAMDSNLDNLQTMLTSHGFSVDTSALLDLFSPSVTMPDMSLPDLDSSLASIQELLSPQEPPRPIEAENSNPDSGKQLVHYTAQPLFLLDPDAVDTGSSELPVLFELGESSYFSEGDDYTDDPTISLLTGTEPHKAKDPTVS

[15] = biological target: T7, Short transient receptor potential channel 4 (Mus musculus, UniProt Q9QUQ5); experiment: calcium entry via TRPC4 opening agents – cell-based, HEK293 TRPC4/mu-opioid, Fluo-4 calcium, dose response (AID 434937); type: functional
T7 sequence (Q9QUQ5 whole entry): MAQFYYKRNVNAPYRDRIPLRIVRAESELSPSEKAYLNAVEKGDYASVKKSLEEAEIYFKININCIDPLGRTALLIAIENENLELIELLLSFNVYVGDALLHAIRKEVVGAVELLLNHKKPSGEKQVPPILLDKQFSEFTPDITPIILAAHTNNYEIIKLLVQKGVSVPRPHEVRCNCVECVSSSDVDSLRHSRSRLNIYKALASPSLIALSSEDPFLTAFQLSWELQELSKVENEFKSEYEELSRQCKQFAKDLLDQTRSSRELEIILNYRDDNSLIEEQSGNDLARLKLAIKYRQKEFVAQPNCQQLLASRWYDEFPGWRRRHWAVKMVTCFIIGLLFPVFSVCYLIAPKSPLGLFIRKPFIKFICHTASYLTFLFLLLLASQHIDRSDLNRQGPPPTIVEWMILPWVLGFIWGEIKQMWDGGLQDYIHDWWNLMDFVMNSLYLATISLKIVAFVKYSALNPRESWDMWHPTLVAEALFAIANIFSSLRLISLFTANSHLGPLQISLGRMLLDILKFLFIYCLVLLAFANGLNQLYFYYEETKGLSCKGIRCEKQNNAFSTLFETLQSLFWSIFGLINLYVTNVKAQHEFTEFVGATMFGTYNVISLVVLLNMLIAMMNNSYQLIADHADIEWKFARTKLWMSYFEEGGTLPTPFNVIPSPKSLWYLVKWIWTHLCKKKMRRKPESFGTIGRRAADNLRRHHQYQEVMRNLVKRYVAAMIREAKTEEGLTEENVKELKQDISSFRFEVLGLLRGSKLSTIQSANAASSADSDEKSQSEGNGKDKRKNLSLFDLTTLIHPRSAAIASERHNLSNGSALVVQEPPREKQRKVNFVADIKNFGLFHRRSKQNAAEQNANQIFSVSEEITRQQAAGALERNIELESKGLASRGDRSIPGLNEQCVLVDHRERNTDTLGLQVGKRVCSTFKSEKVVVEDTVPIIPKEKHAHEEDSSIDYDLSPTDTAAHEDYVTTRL

[16] = test system: INS1; experiment: INS-1E survival protection against cytokine death – cell-based, luminescence, retest, dose response (AID 449756); type: functional; conditions: Rattus norvegicus;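 note: cell death triggered by IL-1 beta plus TNF-alpha plus IFN-gamma mixture; protective hits raise ATP signal compared with cytokine alone wells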

## CCCCn1c(SCC(=O)N2CCN(c3ccccc3)CC2)nc2ccsc2c1=O
[1]
  EC50: 9.68 µM (active)
[2]
  IC50: 11.5 µM (active)
[3]
  IC50: > 20 µM (inactive)
[4]
  EC50: 4.06 µM (active)
[5]
  IC50: 8.34 µM (active)
[6]
  IC50: > 20 µM (inactive)

## CCN(CC)C(=S)SCC(=O)c1c(C)[nH]c2ccccc12
[7]
  EC50: > 71.5 µM (inactive)

## O=C(c1[nH]ncc1-c1ccc(Cl)cc1)C1CO1 (centres undefined)
[4]
  EC50: > 20 µM (inactive)
[8]
  AC50: 31.7 µM (active)
[9]
  EC50: 20.9 µM (active)

## O=C(NCC1CCN(Cc2cccc(Cl)c2)CC1)C1CCCN(c2ncnc3c2nc2n3CCCCC2)C1 (centres undefined)
[10]
  IC50: > 20 µM (inactive)
[11]
  IC50: 3.87 µM (active)
[12]
  IC50: 1.89 µM (active)

## COC(=O)c1ccc(S(=O)(=O)N2CCC(O)CC2)n1C
[7]
  EC50: > 71.4 µM (inactive)

## Cc1ccc(-n2ncc3c(O)ncnc32)c(C)c1
[13]
  IC50: > 50 µM (inactive)

## Cc1ccc(C(C)C)c(OCc2ccc(-c3nnco3)cc2)c1
[1]
  EC50: 13.2 µM (active)
[2]
  IC50: 15.2 µM (active)
[3]
  IC50: > 20 µM (inactive)
[4]
  EC50: 14.6 µM (active)
[5]
  IC50: > 20 µM (inactive)
[6]
  IC50: > 20 µM (inactive)

## CCCC(C(=O)NC(C)(C)C)N(C(=O)c1snc(C(N)=O)c1N)c1ccc2c(c1)OCCO2 (centres undefined)
[14]
  EC50: 1.58 µM (active)
[10]
  IC50: > 20 µM (inactive)
[11]
  IC50: 8.3 µM (active)
[12]
  IC50: 10.2 µM (active)

## CN(C)CCCN(C(=O)c1ccc(S(=O)(=O)N(C)Cc2ccccc2)cc1)c1nc2cc3c(cc2s1)OCO3
[10]
  IC50: > 20 µM (inactive)
[11]
  IC50: 11.5 µM (active)
[15]
  EC50: 9.44 µM (active)
[12]
  IC50: 5.54 µM (active)
[16]
  AC50: > 120 µM (inactive)

## N#Cc1c2n(c3c(=O)n(Cc4ccccc4)cnc13)CCCC2
[13]
  IC50: > 50 µM (inactive)

## COC(=O)c1ccc(NCC(=O)Nc2cc(C)cc(C)c2)cc1
[13]
  IC50: > 50 µM (inactive)

## O=[N+]([O-])c1ccc2c(c1)c1ccccc1n2CCO
[13]
  IC50: > 50 µM (inactive)

## CC(C)CNC(=S)NC(=O)c1ccccc1Cl
[7]
  EC50: > 71.4 µM (inactive)
